# Laboratory results reported in US12275722B2, “Process of reworking a crystalline form of a glycine transport inhibitor” (Boehringer Ingelheim International GmbH, priority 2020, dated 2025).
# Assays:
# [1] = Bulk density of the dried/homogenized Compound batches; assay type: physicochemical; conditions: reworked (dried, homogenized) drug substance batch
# [2] = Water sorption (dynamic vapor sorption), water-uptake; assay type: physicochemical; conditions: 25° C., 90% relative humidity for 6 hours under humid nitrogen purge
# Experimental: Water sorption isotherms can be determined using a dynamic vapor sorption system (Advantage, DVS, London, UK). The samples are subjected to 0 to 90% relative humidity (RH) stepwise with a step size of 10% at 25° C. Each sample is equilibrated at each RH step for at least 60 min, and equilibrium is assumed if weight increase is less than 0.1% within one minute, and the maximum duration on each RH is 6 hours. Therefore, each sample is held at a given RH for 1 to 6 hours depending on how fast the equilibrium is reached.
smiles,measurement,setting,value
C[C@@H](Oc1ccc(S(C)(=O)=O)cc1C(=O)N1C[C@@H]2C[C@]2(c2cc(C(F)(F)F)on2)C1)C(F)(F)F [Batch 1099103],Bulk density,[1]; listed as 9103,0.15 g/mL
C[C@@H](Oc1ccc(S(C)(=O)=O)cc1C(=O)N1C[C@@H]2C[C@]2(c2cc(C(F)(F)F)on2)C1)C(F)(F)F [Batch 6],Bulk density,[1]; listed as 6,0.15 g/mL
C[C@@H](Oc1ccc(S(C)(=O)=O)cc1C(=O)N1C[C@@H]2C[C@]2(c2cc(C(F)(F)F)on2)C1)C(F)(F)F [Batch 18106],Bulk density,[1]; listed as 18106,0.15 g/mL
C[C@@H](Oc1ccc(S(C)(=O)=O)cc1C(=O)N1C[C@@H]2C[C@]2(c2cc(C(F)(F)F)on2)C1)C(F)(F)F [Batch 1098942],Bulk density,[1]; listed as 8942,0.16 g/mL
C[C@@H](Oc1ccc(S(C)(=O)=O)cc1C(=O)N1C[C@@H]2C[C@]2(c2cc(C(F)(F)F)on2)C1)C(F)(F)F [Batch 1099101],Bulk density,[1]; listed as 9101,0.14 g/mL
C[C@@H](Oc1ccc(S(C)(=O)=O)cc1C(=O)N1C[C@@H]2C[C@]2(c2cc(C(F)(F)F)on2)C1)C(F)(F)F [Batch 5],Bulk density,[1]; listed as 5,0.14 g/mL
C[C@@H](Oc1ccc(S(C)(=O)=O)cc1C(=O)N1C[C@@H]2C[C@]2(c2cc(C(F)(F)F)on2)C1)C(F)(F)F [Batch 1098955],Bulk density,[1]; listed as 8955,0.15 g/mL
C[C@@H](Oc1ccc(S(C)(=O)=O)cc1C(=O)N1C[C@@H]2C[C@]2(c2cc(C(F)(F)F)on2)C1)C(F)(F)F [Batch 1099100],Bulk density,[1]; listed as 9100,0.15 g/mL
C[C@@H](Oc1ccc(S(C)(=O)=O)cc1C(=O)N1C[C@@H]2C[C@]2(c2cc(C(F)(F)F)on2)C1)C(F)(F)F [Batch 18105],Bulk density,[1]; listed as 18105,0.12 g/mL
C[C@@H](Oc1ccc(S(C)(=O)=O)cc1C(=O)N1C[C@@H]2C[C@]2(c2cc(C(F)(F)F)on2)C1)C(F)(F)F [Batch 18107],Bulk density,[1]; listed as 18107,0.14 g/mL
C[C@@H](Oc1ccc(S(C)(=O)=O)cc1C(=O)N1C[C@@H]2C[C@]2(c2cc(C(F)(F)F)on2)C1)C(F)(F)F [Batch 17103],Bulk density,[1]; listed as 17103,0.50 g/mL
C[C@@H](Oc1ccc(S(C)(=O)=O)cc1C(=O)N1C[C@@H]2C[C@]2(c2cc(C(F)(F)F)on2)C1)C(F)(F)F [Batch 1099102],Bulk density,[1]; listed as 9102,0.15 g/mL
C[C@@H](Oc1ccc(S(C)(=O)=O)cc1C(=O)N1C[C@@H]2C[C@]2(c2cc(C(F)(F)F)on2)C1)C(F)(F)F [Batch 3TB],Bulk density,[1]; listed as 3TB,0.17 g/mL
C[C@@H](Oc1ccc(S(C)(=O)=O)cc1C(=O)N1C[C@@H]2C[C@]2(c2cc(C(F)(F)F)on2)C1)C(F)(F)F [Batch 17102],Bulk density,[1]; listed as 17102,0.35 g/mL
C[C@@H](Oc1ccc(S(C)(=O)=O)cc1C(=O)N1C[C@@H]2C[C@]2(c2cc(C(F)(F)F)on2)C1)C(F)(F)F [Batch 4TA],Bulk density,[1]; listed as 4TA,0.22 g/mL
C[C@@H](Oc1ccc(S(C)(=O)=O)cc1C(=O)N1C[C@@H]2C[C@]2(c2cc(C(F)(F)F)on2)C1)C(F)(F)F [Batch 2TA],Bulk density,[1]; listed as 2TA,0.17 g/mL
C[C@@H](Oc1ccc(S(C)(=O)=O)cc1C(=O)N1C[C@@H]2C[C@]2(c2cc(C(F)(F)F)on2)C1)C(F)(F)F [Batch 1099104],Bulk density,[1]; listed as 9104,0.15 g/mL
C[C@@H](Oc1ccc(S(C)(=O)=O)cc1C(=O)N1C[C@@H]2C[C@]2(c2cc(C(F)(F)F)on2)C1)C(F)(F)F [Batch 17104],Bulk density,[1]; listed as 17104,0.23 g/mL
C[C@@H](Oc1ccc(S(C)(=O)=O)cc1C(=O)N1C[C@@H]2C[C@]2(c2cc(C(F)(F)F)on2)C1)C(F)(F)F [Batch 1098943],Bulk density,[1]; listed as 8943,0.14 g/mL
"C[C@@H](Oc1ccc(S(C)(=O)=O)cc1C(=O)N1C[C@@H]2C[C@]2(c2cc(C(F)(F)F)on2)C1)C(F)(F)F [amorphous form, [5-(methylsulfonyl)-2-{[(2R)-1,1,1-trifluoropropan-2-yl]oxy}phenyl]{(1R,5R)-1-[5-(trifluoromethyl)-1,2-oxazol-3-yl]-3-azabicyclo[3.1.0]hex-3-yl}methanone]",Water-uptake,[2],1.4%
C[C@@H](Oc1ccc(S(C)(=O)=O)cc1C(=O)N1C[C@@H]2C[C@]2(c2cc(C(F)(F)F)on2)C1)C(F)(F)F [Batch 1TB],Bulk density,[1]; listed as 1TB,0.16 g/mL
C[C@@H](Oc1ccc(S(C)(=O)=O)cc1C(=O)N1C[C@@H]2C[C@]2(c2cc(C(F)(F)F)on2)C1)C(F)(F)F [Batch 1098954],Bulk density,[1]; listed as 8954,0.15 g/mL
C[C@@H](Oc1ccc(S(C)(=O)=O)cc1C(=O)N1C[C@@H]2C[C@]2(c2cc(C(F)(F)F)on2)C1)C(F)(F)F [Batch 1TA],Bulk density,[1]; listed as 1TA,0.17 g/mL
C[C@@H](Oc1ccc(S(C)(=O)=O)cc1C(=O)N1C[C@@H]2C[C@]2(c2cc(C(F)(F)F)on2)C1)C(F)(F)F [Batch 2TB],Bulk density,[1]; listed as 2TB,0.2 g/mL
"C[C@@H](Oc1ccc(S(C)(=O)=O)cc1C(=O)N1C[C@@H]2C[C@]2(c2cc(C(F)(F)F)on2)C1)C(F)(F)F [polymorph II, [5-(methylsulfonyl)-2-{[(2R)-1,1,1-trifluoropropan-2-yl]oxy}phenyl]{(1R,5R)-1-[5-(trifluoromethyl)-1,2-oxazol-3-yl]-3-azabicyclo[3.1.0]hex-3-yl}methanone]",Water-uptake,[2],about 0.04%
C[C@@H](Oc1ccc(S(C)(=O)=O)cc1C(=O)N1C[C@@H]2C[C@]2(c2cc(C(F)(F)F)on2)C1)C(F)(F)F [Batch 4TB],Bulk density,[1]; listed as 4TB,0.17 g/mL
C[C@@H](Oc1ccc(S(C)(=O)=O)cc1C(=O)N1C[C@@H]2C[C@]2(c2cc(C(F)(F)F)on2)C1)C(F)(F)F [Batch 3TA],Bulk density,[1]; listed as 3TA,0.18 g/mL
